# Results taken from patent US20090269419A1, “COSMETIC COMPOSITION BASED ON POLYUNSATURATED FATTY ACIDS AND ITS USES” (priority 2006, published 2009).
# Assays:
# melanocytes [1] = test: Inhibition of melanogenesis stimulated by theophylline; assay type: cell-based; conditions: AA-2G 2.5 mM for 12 hours; theophylline 0.5 mM
# Procedure: • a) Culturing of melanocytes with AA-2G 2.5 mM+control without AA-2G for 12 hours • b) Stimulation of melanogenesis by theophylline (0.5 mM) • c) Detection of melanin by colorimetry (photos).
# melanocytes [2] = test: Reduction of intra-cellular melanin; assay type: cell-based; conditions: AA-2G 2 mM for 48 hours
# Procedure: • a) Culturing of melanocytes for 48 hours • b) Addition of AA-2G 2 mM for 48 hours • c) Lysis of the cells in order to read the quantity of melanin contained.
# collagenase = test: Anti-collagenase activity on frozen sections, collagen stained with picro-sirius and image analysis; assay type: biochemical
# Procedure: The anti-collagenase activity test was carried out on ds-es frozen sections. The products to be tested were mixed (volume/volume) with a collagenase solution at 60 U/ml. Incubation took place in a humid chamber for 2 h at 37° C. The remaining collagen was stained with picro-sirius and quantified by image analysis.
# • 1. Control TRIS buffer • 2. Collagenase […] • 3. Reference R: phenanthroline • 4. Reference R: phenanthroline+collagenase 60 U/ml • 5. Product P2: Immortelle very precious cream ref 05.34.A • 6. Product P2: Immortelle very precious cream ref 05.34.A+collagenase 60 U/ml
# For each sample, 4 microscopic fields were analysed as a function of the size of the sample. Each microscopic field is digitised and analysed according to the method described below using the LEICA QWIN software.
# 1. Digitised Image • Staining of the collagen network
# 2. Detection of the Collagen by Thresholding • Binary mask 0
# 3. Determination of the Zone of Interest • Exclusion of the epidermis and annexes • Inversion of the mask so as to retain only the zone corresponding to the dermis • Binary mask 2
# 4. Selection of Collagen in the Zone of Interest • Binary mask 3=2+0
# 5. Surface measurement Measurement of binary mask 3 • Measurement of binary mask 2
# 6. Results Exporting of results to Excel • Calculation of the percentage of surface area occupied by collagen in the dermis
# keratinocytes = test: Stimulation of ATP synthesis, intracellular ATP content by bioluminescence; assay type: cell-based; conditions: 0.01%; incubation for 6 hours
# Procedure: After incubation for 6 hours, the intracellular ATP content was measured by bioluminescence using the kit “ATP Monitoring Kit” (LABSYSTEMS) according to the manufacturer's instructions. The results were expressed in mM of ATP and as a percentage of the control group.
# Effect of Sepitonic M3 and of cytochrome C on the ATP content of keratinocytes after incubation for 6 hours: […]
molecule,measurement,setting,value
"O=C1O[C@H]([C@@H](O)CO)C(O)=C1O[C@H]1O[C@H](CO)[C@@H](O)[C@H](O)[C@H]1O [AA-2G, O-α-D-glucopyranosyl-(1→2)-L-ascorbic acid]",quantity of developed melanin versus untreated melanocytes (photos),melanocytes [1],lesser quantity of developed melanin
same,reduction of intra-cellular melanin,melanocytes [2],60%
c1cnc2c(c1)ccc1cccnc12 [phenanthroline],"anti-collagenase activity, in words",collagenase,completely inhibits the effect of collagenase
same,"percentage of surface area occupied by collagen in the dermis, Mean (typical variance)","collagenase; With collagenase (60 U/ml mixed volume/volume), 2 h at 37° C.",90.4 (3.8) %
same,histological examination of the collagen,collagenase; without collagenase,well structured
same,"percentage of surface area occupied by collagen in the dermis, Mean (typical variance)",collagenase; without collagenase,88.7 (1.5) %
Cytochrome C: reference in the keratinocyte ATP test,"ATP content of keratinocytes, percentage of the control group (ES)",keratinocytes,ES 110%
